EC50, Emax and Ki data for seven molecules are collected here from US9340542B2, “Propellane-based compounds and the use thereof” (Purdue Pharma L.P., priority 2013, dated 2016).

Molecules are shown by their SMILES. Like-named read-outs stand apart in the source and are kept apart here.

For test [1], the target named is T1, μ-opioid receptor (Homo sapiens (Human), UniProt P35372). Kind of test: μ-opioid receptor [35S]GTPγS functional assay. Format: biochemical. The settings on record: for EC50: GTPγS functional assay using U-2 OS cells; for Emax: maximal effect relative to DAMGO, U-2 OS cells. The protocol: [^35S]GTPγS functional assays were conducted using freshly thawed p-receptor membranes prepared in-house from a cell line expressing recombinant μ opioid receptor in a HEK-293, CHO or U-2 OS cell background, or purchased from a commercial source (Perkin Elmer, Shelton. Conn.; or DiscovRx, Fremont, Calif.). Assay reactions were prepared by sequentially adding the following reagents to binding buffer (100 mM NaCl, 10 mM MgCl2, 20 mM HEPES, pH 7.4) on ice (final concentrations indicated): membrane protein ([…]), saponin ([…]), GDP ([…]) and [^35S]GTPγS (0.20 nM; Perkin Elmer, Shelton, Conn.). The prepared membrane solution (190 μl/well) was transferred to 96-shallow well polypropylene plates containing 10 μl of 20× concentrated stock solutions of the agonist [D-Ala^2, N-methyl-Phe^4 Gly-ol^5]-enkephalin (DAMGO) prepared in dimethyl sulfoxide (DMSO). Plates were incubated for 30 min at about 25° C. with shaking. Reactions were terminated by rapid filtration onto 96-well Unifilter GF/B filter plates (Perkin Elmer, Shelton, Conn.) using a 96-well tissue harvester (Perkin Elmer, Shelton, Conn.) followed by three filtration washes with 200 μl of ice-cold wash buffer (10 mM NaH2PO4, 10 mM Na2HPO4, pH 7.4). Filter plates were subsequently dried at 50° C. for 2-3 hours. BetaScint scintillation cocktail (Perkin Elmer, Shelton, Conn.) was added (50 μl/well) and plates were counted using a Packard Top-Count for 1 min/well. Data were analyzed using the sigmoidal dose-response curve fitting functions in GraphPad PRISM v. 3.0, or an in-house function for non-linear, sigmoidal dose-response curve-fitting.
μ GTP EC50 is the concentration of a compound providing 50% of the maximal response for the compound at a […] receptor.
μ GTP Emax (%) is the maximal effect elicited by a compound relative to the effect elicited by DAMGO, a standard μ agonist. Generally, the μ GTP Emax (%) value measures the efficacy of a compound to treat or prevent pain or other Conditions.
(§1) In TABLE 2, activity response of certain Compounds of the Invention to the μ- and κ-opioid receptors was determined as described above for functional assays using U-2 OS cells.
(GTPγS is a poorly hydrolysed GTP analogue; its binding reports G protein activation.)

Test [2] addresses T2, κ opioid receptor (Homo sapiens (Human), UniProt P41145). Kind of test: κ-opioid receptor [35S]GTPγS functional assay. Format: biochemical. Conditions: for EC50: GTPγS functional assay using U-2 OS cells; for Emax: maximal effect relative to U69,593, U-2 OS cells. The procedure: Functional [^35S]GTPγS binding assays were conducted as follows. κ opioid receptor membrane solution was prepared by sequentially adding final concentrations of 0.026 μg/μl κ membrane protein (in-house), 10 μg/mL saponin, 3 μM GDP and 0.20 nM [^35S]GTPγS to binding buffer (100 mM NaCl, 10 mM MgCl2, 20 mM HEPES, pH 7.4) on ice. The prepared membrane solution (190 μl/well) was transferred to 96-shallow well polypropylene plates containing 10 μl of 20× concentrated stock solutions of agonist prepared in DMSO. Plates were incubated for 30 min at a temperature of about 25° C. with shaking. Reactions were terminated by rapid filtration onto 96-well Unifilter GF/B filter plates (Perkin Elmer, Shelton, Conn.) using a 96-well tissue harvester (Packard) and followed by three filtration washes with 200 μl ice-cold binding buffer (10 mM NaH2PO4, 10 mM Na2HPO4, pH 7.4). Filter plates were subsequently dried at 50° C. for 2-3 hours. Fifty μl/well scintillation cocktail (Perkin Elmer, Shelton, Conn.) was added and plates were counted in a Packard Top-Count for 1 min/well.
κ GTP EC50 is the concentration of a compound providing 50% of the maximal response for the compound at a κ receptor.
κ GTP Emax (%) is the maximal effect elicited by a compound relative to the effect elicited by U69,593.
as §1

The target of test [3] is T1, μ-opioid receptor. In words: μ-opioid receptor radioligand dose-displacement binding assay ([3H]-diprenorphine). Conditions: binding affinity. The protocol: Radioligand dose-displacement binding assays for μ-opioid receptors used 0.3 nM [^3H]-diprenorphine (Perkin Elmer, Shelton, Conn.), with […] membrane protein/well in a final volume of 500 μl binding buffer (10 mM MgCl2, 1 mM EDTA, 5% DMSO, 50 mM HEPES, pH 7.4). Reactions were carried out in the absence or presence of increasing concentrations of unlabeled naloxone. All reactions were conducted in 96-deep well polypropylene plates for 2 hours at room temperature. Binding reactions were terminated by rapid filtration onto 96-well Unifilter GF/C filter plates (Perkin Elmer, Shelton, Conn.), presoaked in 0.5% polyethylenimine using a 96-well tissue harvester (Perkin Elmer, Shelton, Conn.) followed by performing three filtration washes with 500 μl of ice-cold binding buffer. Filter plates were subsequently dried at 50° C. for 2-3 hours. BetaScint scintillation cocktail (Perkin Elmer, Shelton, Conn.) was added (50 μl/well), and plates were counted using a Packard Top-Count for 1 min/well. The data were analyzed using the one-site competition curve fitting functions in GraphPad PRISM™ v. 3.0 or higher (San Diego, Calif.), or an in-house function for one-site competition curve-fitting.
(§2) In TABLE 1, binding affinity of certain Compounds of the Invention to the μ- and κ-opioid receptors was determined as described above.

Test [4] concerns the target T2, κ opioid receptor. In words: κ-opioid receptor radioligand dose-displacement binding assay ([3H]-U69,593). The settings on record: binding affinity. The protocol:
Membranes from HEK-293 cells, CHO or U-2 OS cells expressing the recombinant human κ opioid receptor (κ) were prepared by lysing cells in ice cold hypotonic buffer (2.5 mM MgCl2, 50 mM HEPES, pH 7.4) (10 mL/10 cm dish) followed by homogenization with a tissue grinder/Teflon pestle. Membranes were collected by centrifugation at 30,000×g for 15 min at 4° C. and pellets were resuspended in hypotonic buffer to a final concentration of 1-3 mg/mL. Protein concentrations were determined using the BioRad protein assay reagent with bovine serum albumen as standard. Aliquots of κ receptor membranes were stored at −80° C.
Radioligand dose displacement assays used 0.4 nM [^3H]-U69,593 (GE Healthcare, Piscataway, N.J.; 40 Ci/mmole) with 15 μg membrane protein (recombinant κ opioid receptor expressed in HEK 293 cells; in-house prep) in a final volume of 200 μl binding buffer (5% DMSO, 50 mM Trizma base, pH 7.4). Non-specific binding was determined in the presence of 10 μM unlabeled naloxone or U69,593. All reactions were performed in 96-well polypropylene plates for 1 hour at a temperature of about 25° C. Binding reactions were terminated by rapid filtration onto 96-well Unifilter GF/C filter plates (Perkin Elmer, Shelton, Conn.) presoaked in 0.5% polyethylenimine (Sigma). Harvesting was performed using a 96-well tissue harvester (Perkin Elmer, Shelton, Conn.) followed by five filtration washes with 200 μl ice-cold binding buffer. Filter plates were subsequently dried at 50° C. for 1-2 hours. Fifty μl/well scintillation cocktail (Perkin Elmer, Shelton, Conn.) was added and plates were counted in a Packard Top-Count for 1 min/well.
as §2

Setting [5] is: read-out: Opioid Receptor Ki (nM) μ.

For the molecule `NC(=O)c1cc2c([nH]c1=O)C[C@@]13CCN(CC4CC4)C[C@@]1(Cc1ccc(O)cc13)C2` [Compound 7, (5aS,10bR)-14-(cyclopropylmethyl)-9-hydroxy-2-oxo-2,5,6,11-tetrabydro-1H-10b,5a-(ethanoiminomethano)indeno[2,1-g]quinoline-3-carboxamide], the values for the EC50 in test [1] and in test [2] were 412 ± 66.4 nM and 570 ± 85.4 nM, respectively. For the same molecule, the Emax amounted to 19.3 ± 3.18% in test [1] and 103 ± 5.21% in test [2]. In addition, the values for the Ki in test [3] (setting [5]) and in test [4] were 770 ± 102 nM and 148 ± 39.8 nM, respectively.

Regarding `O=C1NC(=O)[C@]2(CC[C@@]34Cc5ccc(O)cc5[C@@]3(CCN(CC3CC3)C4)C2)N1` [Compound 9, (3R,4aR,9aR)-11-(cyclopropylmethyl)-6-hydroxy-1,2,4,9-tetrahydrospiro[4a,9a-(ethanoiminomethano)fluorene-3,4′-imidazolidine]-2′,5′-dione], the EC50 was determined as 309 ± 36.3 nM in test [1] and 318.8 ± 1.38 nM in test [2]. Also, the values for the Emax in test [1] and in test [2] were 94 ± 3.06% and 109 ± 7.09%, respectively. The Ki stood at 676 ± 74.1 nM in test [3] (setting [5]) and 148 ± 25.2 nM in test [4].

Consider `COC(=O)c1cc2c([nH]c1=O)C[C@@]13CCN(CC4CC4)C[C@@]1(Cc1ccc(OC)cc13)C2` [Compound 5, (5aS,10bR)-methyl 14-(cyclopropylmethyl)-9-methoxy-2-oxo-2,5,6,11-tetrahydro-1H-10b,5a-(ethanoiminomethano)indeno[2,1-g]quinoline-3-carboxylate], for which the values for the Ki in test [3] (setting [5]) and in test [4] were 9550 ± 1870 nM and 3600 ± 882 nM, respectively.

In the case of `COc1ccc2c(c1)[C@]13CCN(CC4CC4)C[C@@]1(C2)Cc1cc(C(N)=O)c(=O)[nH]c1C3` [Compound 6, (5aS,10bR)-14-(cyclopropylmethyl)-9-methoxy-2-oxo-2,5,6,11-tetrahydro-1H-10b,5a-(ethanoiminomethano)indeno[2,1-g]quinoline-3-carboxamide], the figures for the Ki in test [3] (setting [5]) and in test [4] were 15600 nM and 4280 ± 1090 nM, respectively.

As for `COc1ccc2c(c1)[C@]13CCN(CC4CC4)C[C@]1(CC[C@]1(C3)NC(=O)NC1=O)C2` [Compound 3], the results for the Ki in test [3] (read-out: Opioid Receptor Ki μ) and in test [4] were greater than 20000 nM and 8410 ± 650 nM, respectively.

`O=C1NC(=O)[C@@]2(CC[C@@]34Cc5ccc(O)cc5[C@@]3(CCN(CC3CC3)C4)C2)N1` [Compound 8, (3S,4aR,9aR)-11-(cyclopropylmethyl)-6-hydroxy-1,2,4,9-tetrahydrospiro[4a,9a-(ethanoiminomethano)fluorene-3,4′-imidazolidine]-2′,5′-dione]: the EC50 was 414 ± 62.8 nM in test [1] and 384 ± 36.9 nM in test [2]. The Emax was 86.7 ± 1.67% in test [1] and 119 ± 4.41% in test [2]. Further, the Ki in test [3] (setting [5]) turned out to be 472 ± 93 nM; in test [4], 72.5 ± 18.3 nM.

As to `COc1ccc2c(c1)[C@]13CCN(CC4CC4)C[C@]1(CC[C@@]1(C3)NC(=O)NC1=O)C2` [Compound 2, (3S,4aR,9,aR)-11-(cyclopropylmethyl)-6-methoxy-1,2,4,9-tetrahydrospiro[4a,9a-(ethanoiminomethano)fluorene-3,4′-imidazolidine]-2′,5′-dione], the Ki was 6250 ± 874 nM in test [3] (setting [5]) and 4760 ± 1110 nM in test [4].

What is called EC50 is the midpoint of the concentration-response curve. Broadly, the Emax is the size of the effect at its maximum, as opposed to the concentration needed. As a reminder, the Ki is a measure of affinity in units of concentration, obtained from inhibition or displacement.
